In ChEMBL document CHEMBL4033691, “Discovery and structure-guided fragment-linking of 4-(2,3-dichlorobenzoyl)-1-methyl-pyrrole-2-carboxamide as a pyruvate kinase M2 activator” (Bioorg Med Chem, 2017):
The source made the active and inactive calls. No cut-off for these calls is given here.

Key:
[1] = Stability of the compound; assay type: physicochemical
Pyruvate kinase PKM [2] = target: T1, Pyruvate kinase PKM (Homo sapiens, UniProt P14618); test: Activation of full length recombinant human N-terminal His6-tagged PKM2 expressed in Escherichia coli BL21(DE3) at 10 ug/ml using PEP as substrate preincubated for 5 mins followed by substrate addition measured after 90 mins in presence of ADP by Kinase-Glo luminescence assay relative to control
Target sequence in this assay (P14618 2-531 limits assumed): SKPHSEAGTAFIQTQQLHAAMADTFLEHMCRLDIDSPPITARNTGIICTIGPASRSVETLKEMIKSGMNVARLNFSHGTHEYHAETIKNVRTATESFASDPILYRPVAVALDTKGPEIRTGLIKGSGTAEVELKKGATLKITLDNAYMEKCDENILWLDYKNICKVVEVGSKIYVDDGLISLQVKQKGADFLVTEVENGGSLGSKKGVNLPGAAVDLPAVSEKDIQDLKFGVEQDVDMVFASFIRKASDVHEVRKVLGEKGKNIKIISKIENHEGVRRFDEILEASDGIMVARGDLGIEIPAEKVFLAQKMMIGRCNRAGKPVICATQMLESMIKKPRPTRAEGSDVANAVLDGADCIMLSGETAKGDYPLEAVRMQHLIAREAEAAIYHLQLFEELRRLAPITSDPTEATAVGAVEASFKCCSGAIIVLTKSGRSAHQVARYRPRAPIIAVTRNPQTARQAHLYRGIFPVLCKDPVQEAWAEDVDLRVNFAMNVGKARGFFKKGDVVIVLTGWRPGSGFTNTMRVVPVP

Pyruvate kinase PKM [3] = target: T1, Pyruvate kinase PKM; test: Activation of PKM2 in human A549 cells using PEP as substrate preincubated for 1 hr followed by substrate addition measured after 1 hr in presence of ADP by Kinase-Glo luminescence assay; assay type: cell-based
Target sequence in this assay (P14618 whole entry): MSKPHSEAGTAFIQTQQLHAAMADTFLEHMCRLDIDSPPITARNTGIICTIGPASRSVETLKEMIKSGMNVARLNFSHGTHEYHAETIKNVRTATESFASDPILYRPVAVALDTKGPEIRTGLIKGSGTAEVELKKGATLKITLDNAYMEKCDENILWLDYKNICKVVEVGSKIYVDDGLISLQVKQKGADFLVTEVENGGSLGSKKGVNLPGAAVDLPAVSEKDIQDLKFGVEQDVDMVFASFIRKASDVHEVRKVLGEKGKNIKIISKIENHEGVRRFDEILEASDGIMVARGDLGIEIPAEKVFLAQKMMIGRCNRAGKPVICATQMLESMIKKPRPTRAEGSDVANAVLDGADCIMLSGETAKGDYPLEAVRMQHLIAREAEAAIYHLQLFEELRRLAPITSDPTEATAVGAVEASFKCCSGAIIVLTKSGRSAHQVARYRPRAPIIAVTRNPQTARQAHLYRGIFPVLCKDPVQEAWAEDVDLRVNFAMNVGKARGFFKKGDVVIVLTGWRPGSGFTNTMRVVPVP

A549 = test: Growth inhibition of human A549 cells after 72 hrs in presence of serine by CellTiter-Glo luminescent assay; assay type: functional, cell-based
Pyruvate kinase PKM [4] = target: T1, Pyruvate kinase PKM; test: Activation of PKM2 in human A549 cells using PEP as substrate preincubated for 1 hr followed by substrate addition measured after 1 hr in presence of ADP by Kinase-Glo luminescence assay relative to control; assay type: cell-based
Target sequence in this assay (P14618 2-531 limits assumed): as the sequence (P14618 2-531 limits assumed) above

Pyruvate kinase PKM [5] = target: T1, Pyruvate kinase PKM; test: Activation of full length recombinant human N-terminal His6-tagged PKM2 expressed in Escherichia coli BL21(DE3) using PEP as substrate preincubated for 5 mins followed by substrate addition measured after 90 mins in presence of ADP by Kinase-Glo luminescence assay

Stability [1]	Emax (Pyruvate kinase PKM [2]) [%]	AC50 (Pyruvate kinase PKM [3]) [nM]	Activity (Pyruvate kinase PKM [4]) [%]	AC50 (Pyruvate kinase PKM [5]) [nM]	AC200 (Pyruvate kinase PKM [5]) [µM]	Compound	growth inhibition (GI) (A549)
Unstable	194	–	–	–	–	Cn1cc(C(=O)c2cccc(Cl)c2Cl)cc1C(=O)NCNC(=O)c1cc(C(=O)c2cccc(Cl)c2Cl)cn1C	–
–	184	188	598	–	–	Cn1cc(C(=O)c2cccc(Cl)c2Cl)cc1C(=O)NCCNC(=O)c1cc(C(=O)c2cccc(Cl)c2Cl)cn1C	inactive
–	181	–	–	150	–	O=S(=O)(c1ccc2c(c1)OCCO2)N1CCN(S(=O)(=O)c2c(F)cccc2F)CC1	–
–	198	> 100000	–	–	26	Cn1cc(C(=O)c2cccc(Cl)c2Cl)cc1C(N)=O	–
